From patent US10507228B2, “Methods and compositions related to KRAS inhibitors” (priority 2015, dated 2019) come the findings set out here.

In this experiment the target is T1, mt G12D KRas binding to GST-RBD (Raf Ras binding domain) (Homo sapiens, UniProt P01116, G12D).
T1 construct: expressed in transfected cells; host or cells: NIH-3T3 cells (lysate)
Put plainly: GST-RBD pulldown assay. The following applies: lysates of NIH-3T3 cells that ectopically express G12D KRas; compared to DMSO control; FIG. 1B. As for the experimental part: Several stapled peptides such as FY-A-100-1 and 2 have been made (see FIG. 1A) that were designed based on the helical domain (78-92, LHDCLMKALKVRGLQ) (SEQ ID NO. 1) of Raf RBD (Ras binding domain). The synthesis was conducted on solid phase. In GST-RBD pulldown assays, FY-A-100-1 was potent at inhibiting the ability of GST-RBD to bind mt G12D KRas from lysates of NIH-3T3 cells that ectopically express G12D KRas (FIG. 1B). […] Furthermore, FY-A-90-1A, which is identical to FY-A-100-1 except for having a “CH2” shorter side chain of residue 82 that forms the staple, was not active.

Positions of bridges follow the written chain, without caps; N, C: chain ends. Non-standard residues stand in square brackets, D forms with d. Residues, ends and D or L forms follow the SMILES beside them. ξ: configuration not given here. ξK = NCCCCC(N)C(=O)O; ξA = CC(N)C(=O)O

For `CSCC[C@@H]1NC(=O)[C@@H](NC(=O)[C@H](CS)NC(=O)[C@H](CC(=O)O)NC(=O)[C@H](Cc2cnc[nH]2)NC(=O)[C@@H](N)CC(C)C)CC(=O)NCCCC[C@@H](C(=O)NC(CCCCN)C(=O)N[C@H](C(=O)N[C@@H](CCCNC(=N)N)C(=O)NCC(=O)N[C@@H](CC(C)C)C(=O)N[C@@H](CCC(N)=O)C(N)=O)C(C)C)NC(=O)C(CCCCN)NC(=O)[C@H](CCCCN)NC1=O` (stereo partly drawn) [FY-A-90-1A] (H-LHDCDMK[ξK]K[ξK]VRGLQ-NH2; lactam 5-9), the “inhibiting the ability of GST-RBD to bind mt G12D KRas” value (“inhibiting the ability of GST-RBD” below) was “not active”.

For the molecule `CSCC[C@H](NC(=O)[C@H](CC(=O)O)NC(=O)[C@H](CS)NC(=O)[C@H](CC(=O)O)NC(=O)[C@H](Cc1cnc[nH]1)NC(=O)[C@@H](N)CC(C)C)C(=O)N[C@@H](CCCCN)C(=O)NC(CCCCN)C(=O)N[C@@H](CCCCN)C(=O)NC(CCCCN)C(=O)N[C@H](C(=O)N[C@@H](CCCNC(=N)N)C(=O)NCC(=O)N[C@@H](CC(C)C)C(=O)N[C@@H](CCC(N)=O)C(N)=O)C(C)C` (stereo partly drawn) [FY-A-90-1B] (H-LHDCDMK[ξK]K[ξK]VRGLQ-NH2), the “inhibiting the ability of GST-RBD” value is recorded as “little activity”. Consider `CSCC[C@@H]1NC(=O)[C@@H](NC(=O)[C@H](CS)NC(=O)[C@H](CC(=O)O)NC(=O)[C@H](Cc2cnc[nH]2)NC(=O)[C@@H](N)CC(C)C)CC(=O)NCCCC[C@@H](C(=O)NC(CCCCN)C(=O)N[C@H](C(=O)N[C@@H](CCCNC(=N)N)C(=O)NCC(=O)N[C@@H](CC(C)C)C(=O)N[C@@H](CCC(N)=O)C(N)=O)C(C)C)NC(=O)C(C)NC(=O)[C@H](CCCCN)NC1=O` (stereo partly drawn) [FY-A-90-2A] (H-LHDCDMK[ξA]K[ξK]VRGLQ-NH2; lactam 5-9), for which the “inhibiting the ability of GST-RBD” value is recorded as “little activity”.

As to `CSCC[C@@H]1NC(=O)[C@@H](NC(=O)[C@H](CS)NC(=O)[C@H](CC(=O)O)NC(=O)[C@H](Cc2cnc[nH]2)NC(=O)[C@@H](N)CC(C)C)CCC(=O)NCCCC[C@@H](C(=O)N[C@@H](CCCCN)C(=O)N[C@H](C(=O)N[C@@H](CCCNC(=N)N)C(=O)NCC(=O)N[C@@H](CC(C)C)C(=O)N[C@@H](CCC(N)=O)C(N)=O)C(C)C)NC(=O)[C@H](CCCCN)NC(=O)[C@H](CCCCN)NC1=O` [FY-A-100-1] (H-LHDCEMKKKKVRGLQ-NH2; lactam 5-9), the “inhibiting the ability of GST-RBD” value is given as “potent”. In the case of `CSCC[C@H](NC(=O)[C@H](CC(=O)O)NC(=O)[C@H](CS)NC(=O)[C@H](CC(=O)O)NC(=O)[C@H](Cc1cnc[nH]1)NC(=O)[C@@H](N)CC(C)C)C(=O)N[C@@H](CCCCN)C(=O)NC(C)C(=O)N[C@@H](CCCCN)C(=O)NC(CCCCN)C(=O)N[C@H](C(=O)N[C@@H](CCCNC(=N)N)C(=O)NCC(=O)N[C@@H](CC(C)C)C(=O)N[C@@H](CCC(N)=O)C(N)=O)C(C)C` (stereo partly drawn) [FY-A-90-2B] (H-LHDCDMK[ξA]K[ξK]VRGLQ-NH2) it was “little activity”; in that of `CSCC[C@@H]1NC(=O)[C@@H](NC(=O)[C@H](CS)NC(=O)[C@H](CC(=O)O)NC(=O)[C@H](Cc2cnc[nH]2)NC(=O)[C@@H](N)CC(C)C)CCC(=O)NCCCC[C@@H](C(=O)N[C@@H](CCCCN)C(=O)N[C@H](C(=O)N[C@@H](CCCNC(=N)N)C(=O)NCC(=O)N[C@@H](CC(C)C)C(=O)N[C@@H](CCC(N)=O)C(N)=O)C(C)C)NC(=O)C(C)NC(=O)[C@H](CCCCN)NC1=O` (stereo partly drawn) [FY-A-100-2] (H-LHDCEMK[ξA]KKVRGLQ-NH2; lactam 5-9), “less potent”.
